# Data as given in article PMC8900659 (Nature chemical biology, 2021).
# Columns and labels:
# [1] = system: NRAS mutant OCI-AML3 cells; assay: pERK Western blot; settings: 4 h; Palm M 10 μM, ABD957 500 nM, PD901 10 nM
# KRAS mutant NB-4 cells = assay: pERK Western blot; settings: 4 h; Palm M 10 μM, ABD957 500 nM, PD901 10 nM
# [2] = system: wild type N-Ras palmitoylation; assay: MS-based dynamic palmitoylation profiling in NB-4 cells; type: cell-based, human
# ABHD17-DKO cells = assay: pERK Western blot; type: cell-based, human; settings: OCI-AML3 ABHD17-DKO, 4 h
# serine hydrolases = assay: in situ MS-ABPP in OCI-AML3 cells, global selectivity; settings: in situ 2 h; ABD957 500 nM, Palm M 10 μM, HDFP 20 μM
# [3] = system: dynamically palmitoylated proteins; assay: MS-based global dynamic palmitoylation profiling in OCI-AML3 cells; settings: Palm M 10 μM, ABD957 500 nM, 1 h chase
# ABHD17s = assay: in vitro MS-ABPP, OCI-AML3 proteome; type: biochemical, human; settings: 1 and 10 μM, 30 min, particulate fraction
# LYPLA1 = LYPLA1 (Homo sapiens, UniProt O75608); assay: in vitro MS-ABPP, OCI-AML3 proteome; type: biochemical; settings: 1 and 10 μM, 30 min, particulate fraction
# Chain of LYPLA1 (O75608 whole entry): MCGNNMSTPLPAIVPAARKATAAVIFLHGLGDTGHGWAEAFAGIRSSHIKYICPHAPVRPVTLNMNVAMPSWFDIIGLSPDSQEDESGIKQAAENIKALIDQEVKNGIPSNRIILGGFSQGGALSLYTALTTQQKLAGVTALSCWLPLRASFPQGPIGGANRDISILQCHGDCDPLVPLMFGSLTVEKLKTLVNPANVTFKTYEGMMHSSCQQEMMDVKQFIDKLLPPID
# LYPLA2 = LYPLA2 (Homo sapiens, UniProt O95372); assay: in vitro MS-ABPP, OCI-AML3 proteome; type: biochemical; settings: 1 and 10 μM, 30 min, particulate fraction
# Chain of LYPLA2 (O95372 whole entry): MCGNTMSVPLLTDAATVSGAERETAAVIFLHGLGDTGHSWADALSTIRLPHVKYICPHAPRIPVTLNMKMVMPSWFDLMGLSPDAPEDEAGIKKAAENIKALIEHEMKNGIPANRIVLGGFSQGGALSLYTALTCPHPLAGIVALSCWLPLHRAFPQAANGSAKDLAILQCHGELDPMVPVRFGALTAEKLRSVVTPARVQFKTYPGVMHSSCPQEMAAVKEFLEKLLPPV
# ABHD17A/B/C = assay: targeted MS-ABPP in situ time-course in ONK cells; type: cell-based, human; settings: 1 μM
# ABHD10 = molecular target: T1, ABHD10 (Homo sapiens, UniProt Q9NUJ1); assay: in vitro MS-ABPP, OCI-AML3 proteome; type: biochemical; settings: 1 and 10 μM, 30 min, particulate fraction
# T1 sequence (Q9NUJ1 53-306): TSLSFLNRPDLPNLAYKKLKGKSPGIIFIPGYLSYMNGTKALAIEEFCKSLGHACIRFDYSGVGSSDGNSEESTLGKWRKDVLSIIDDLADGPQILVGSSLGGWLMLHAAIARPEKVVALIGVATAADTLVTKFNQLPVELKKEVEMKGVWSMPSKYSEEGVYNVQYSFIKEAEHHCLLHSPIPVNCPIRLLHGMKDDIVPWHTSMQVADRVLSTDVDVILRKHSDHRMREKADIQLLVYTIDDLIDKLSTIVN
structure (smiles),measurement,setting,value
O=C(NOC[C@H](O)CO)c1ccc(F)c(F)c1Nc1ccc(I)cc1F [PD901],ERK phosphorylation,[1],blocked ERK phosphorylation in both cell lines
same,ERK phosphorylation,KRAS mutant NB-4 cells,blocked ERK phosphorylation in both cell lines
"CCCCCCCCCC[C@@H]1C(=O)O[C@H]1CCCCS(=O)(=O)CCCN(C)C [Palm M, Palmostatin M]",sensitivity of dynamic palmitoylation of wild type N-Ras,[2],fully preserved
same,ERK phosphorylation,ABHD17-DKO cells,maintained similar activity
same,ERK phosphorylation,[1],substantially blocked
same,ERK phosphorylation,KRAS mutant NB-4 cells,but not in KRAS mutant NB-4 cells
same,global serine hydrolase selectivity in cells,serine hydrolases,widespread serine hydrolase inhibition
same,stabilization of the 22 dynamically palmitoylated proteins,[3],most of these proteins were stabilized
CN(C)S(=O)(=O)c1cnn(C(=O)N2CCN(Cc3ccc(Cl)cc3)CC2)c1 [compound 5],inhibition of ABHD17s,ABHD17s,confirmed inhibition
same,inhibition of LYPLA1,LYPLA1,inhibition
same,inhibition of LYPLA2,LYPLA2,inhibition
C[C@H]1CN(Cc2ccc(C(F)(F)F)cc2N2CCOCC2)CCN1C(=O)n1ccc(S(=O)(=O)N(C)C)n1 [compound 8],sustained inhibition of ABHD17A/B/C over 72 h,ABHD17A/B/C,did not produce sustained inhibition
same,ABHD10 as off-target,ABHD10,introducing ABHD10
